Assay results published in patent US8309721B2, “HSP90 inhibitory carbazole derivatives, compositions containing same and use thereof” (Sanofi, priority 2008, dated 2012).

Tested on: Her2 receptor expression at the surface of SKBr3 cells
Test: phenotypic SKBr3/HER2 cell test (Her2 surface expression by flow cytometry)
Assay type: cell-based
Conditions: Homo sapiens, SK-BR-3, 24 h incubation, inhibition of Her2 expression
Protocol: The cellular activity of the compounds can in particular be evaluated by means of the phenotypic “SKBr3/HER2” cell test described below:
The SKBr3 […] adenocarcinoma cells, overexpressing the Her2 tyrosine kinase receptor, originate from the ATCC (HTB-30) and are cultured in McCoy's 5A medium supplemented with 10% FBS and 1% L-glutamine.
The cells are seeded in 12-well plates at a proportion of 125 000 cells per well in 1 ml of complete medium. The following day, the products are added at varying concentrations. After incubation for 24 h, the cells are trypsinized, washed with PBS and incubated with 100 ng of anti-Her2 antibody coupled to PE (Phycoerythrin) (BD 340552) for 30 minutes at 4° C. in the dark. The fluorescence due to the expression of the Her2 receptor at the surface of the cells is then read using a FACS Calibur flow cytometer (Becton-Dickinson). The percentage inhibition of Her2 expression as a function of the concentrations of product tested is fitted by the nonlinear regression technique (XLfit, equation 205) in order to measure an IC50 for each product.

SMILES	IC50
NC(=O)c1ccc(-n2c3ccccc3c3c(-c4nc5ccc(F)cc5[nH]4)cccc32)cc1N[C@@H]1CN2CCC1CC2 [Example 99, 2-{(S)-(1-azabicyclo[2.2.2]oct-3-yl)amino}-4-[4-(6-fluoro-1H-benzimidazol-2-yl)-9H-carbazol-9-yl]benzamide]	< 1000 nM
Cn1cnc(CCNc2cc(-n3c4ccccc4c4c(-c5nc6ccc(F)cc6[nH]5)cccc43)ccc2C(N)=O)c1 [Example 117, 4-[4-(6-fluoro-1H-benzimidazol-2-yl)-9H-carbazol-9-yl]-2-[(1-methyl-1H-imidazol-4-yl)ethylamino]benzamide]	< 1000 nM
CN1C(C)(C)CC(Nc2cc(-n3c4ccccc4c4c(-c5ccc(C#N)nc5)cccc43)ccc2C(N)=O)CC1(C)C [Example 127, 4-[4-(6-cyanopyridin-3-yl)-9H-carbazol-9-yl]-2-[(1,2,2,6,6-pentamethylpiperidin-4-yl)amino]benzamide]	< 1000 nM
NC(=O)c1ccc(-n2c3ccccc3c3c(-c4ccc(C(F)(F)F)nc4)cccc32)cc1N[C@H]1CC[C@H](O)CC1 [Example 74, 2-[(4-trans-hydroxycyclohexyl)amino]-4-{4-[6-(trifluoromethyl)pyridin-3-yl]-9H-carbazol-9-yl}benzamide]	1000 to 10000 nM

Other lines, results leading:

IC50	SMILES
< 1000 nM	CC(C)(O)CNc1cc(-n2c3ccccc3c3c(-c4nc5ccc(F)cc5[nH]4)cccc32)ccc1C(N)=O [Example 90, 4-[4-(6-fluoro-1H-benzimidazol-2-yl)-9H-carbazol-9-yl]-2-(2-hydroxy-2-methylpropylamino)benzamide]
1000 to 10000 nM	CC1(C)CC(Nc2cc(-n3c4ccccc4c4c(-c5cnc6ccccc6c5)cccc43)cnc2C(N)=O)CC(C)(C)N1 [Example 132, 5-[4-(quinolin-3-yl)-9H-carbazol-9-yl)-3-(2,2,6,6-tetramethylpiperidin-4-ylamino)pyridine-2-carboxamide]
< 1000 nM	NC(=O)c1ccc(-n2c3ccccc3c3c(-c4nc5ccc(F)cc5[nH]4)cccc32)cc1NCc1cocn1 [Example 92, 4-[4-(6-fluoro-1H-benzimidazol-2-yl)-9H-carbazol-9-yl]-2-[(oxazol-4-ylmethyl)amino]benzamide]
